Experimental data: patent US20120178915A1, “PYRIMIDINE DERIVATIVES AND ANALOGS, PREPARATION METHOD AND USE THEREOF” (priority 2009, published 2012)
Converted amounts (≈) assume the structure as drawn. Read-outs that look alike come from different tables or passages of the source.

What was measured:
Format in all cases: cell-based
[1] = system: Gram-positive Bacteria
[2] = system: Bacillus cereus 2; assay: microbe, parasite or virus in culture; conditions: 37° C., 24 h, read-out: Minimum Inhibitory Concentration, MIC
[3] = system: Bacillus cereus 246; assay: microbe, parasite or virus in culture; conditions: 37° C., 24 h, read-out: Minimum Inhibitory Concentration, MIC
[4] = system: Bacillus subtilis 82; assay: microbe, parasite or virus in culture; conditions: 37° C., 24 h, read-out: Minimum Inhibitory Concentration, MIC
[5] = system: Bacillus subtilis 168; assay: microbe, parasite or virus in culture; conditions: 37° C., 24 h, read-out: Minimum Inhibitory Concentration, MIC
[6] = system: Enterococcus faecalis 29212; assay: microbe, parasite or virus in culture; conditions: 37° C., 24 h, read-out: Minimum Inhibitory Concentration, MIC
[7] = system: Enterococcus faecalis 51299; assay: microbe, parasite or virus in culture; conditions: Enterococcus faecalis, 51299, 24 h, read-out: Minimum Inhibitory Concentration, MIC
[8] = system: Enterococcus faecalis 19433; assay: microbe, parasite or virus in culture; conditions: 37° C., 24 h, read-out: Minimum Inhibitory Concentration, MIC
[9] = system: Enterococcus faecalis F2518 (VRE); assay: microbe, parasite or virus in culture; conditions: 24 h, read-out: Minimum Inhibitory Concentration, MIC
[10] = system: Enterococcus fecal F631 (VRE); assay: organism not typed; conditions: 24 h, read-out: Minimum Inhibitory Concentration, MIC
[11] = system: Enterococcus faecalis 1513 (VRE); assay: microbe, parasite or virus in culture; conditions: 24 h, read-out: Minimum Inhibitory Concentration, MIC
[12] = system: Enterococcus faecalis 583 (VRE); assay: microbe, parasite or virus in culture; conditions: 24 h, read-out: Minimum Inhibitory Concentration, MIC
[13] = system: Staphylococcus aureus 29231; assay: microbe, parasite or virus in culture; conditions: 37° C., 24 h, read-out: Minimum Inhibitory Concentration, MIC
[14] = system: Staphylococcus aureus 43300 (MRSA); assay: microbe, parasite or virus in culture; conditions: 24 h, read-out: Minimum Inhibitory Concentration, MIC
[15] = system: Staphylococcus aureus 703 (MRSA); assay: microbe, parasite or virus in culture; conditions: 24 h, read-out: Minimum Inhibitory Concentration, MIC
[16] = system: Staphylococcus aureus 704 (MRSA); assay: microbe, parasite or virus in culture; conditions: 24 h, read-out: Minimum Inhibitory Concentration, MIC
[17] = system: Staphylococcus aureus 705 (MRSA); assay: microbe, parasite or virus in culture; conditions: 24 h, read-out: Minimum Inhibitory Concentration, MIC
[18] = system: Streptococcus pneumoniae 6303 (PRSP); assay: microbe, parasite or virus in culture; conditions: 24 h, read-out: Minimum Inhibitory Concentration, MIC
[19] = system: Streptococcus pneumoniae 62; assay: microbe, parasite or virus in culture; conditions: 37° C., 24 h, read-out: Minimum Inhibitory Concentration, MIC
[20] = system: Streptococcus pneumoniae 6301; assay: microbe, parasite or virus in culture; conditions: 37° C., 24 h, read-out: Minimum Inhibitory Concentration, MIC
[21] = system: Streptococcus pneumoniae M2; assay: microbe, parasite or virus in culture; conditions: 37° C., 24 h, read-out: Minimum Inhibitory Concentration, MIC
[22] = system: Pyogenic Streptococcus; assay: microbe, parasite or virus in culture; conditions: 37° C., 24 h, read-out: Minimum Inhibitory Concentration, MIC
[23] = system: Streptococcus agalactiae B; assay: microbe, parasite or virus in culture; conditions: 37° C., 24 h, read-out: Minimum Inhibitory Concentration, MIC
[24] = system: green Streptococcus 1009; assay: microbe, parasite or virus in culture; conditions: 37° C., 24 h, read-out: Minimum Inhibitory Concentration, MIC
[25] = system: Streptococcus bovis 10035; assay: microbe, parasite or virus in culture; conditions: Streptococcus equinus, 37° C., 24 h, read-out: Minimum Inhibitory Concentration, MIC
[26] = system: Streptococcus 10342; assay: MIC broth microdilution; conditions: 37° C., 24 h, read-out: Minimum Inhibitory Concentration, MIC
[27] = system: Streptococcus pneumoniae 10351; assay: microbe, parasite or virus in culture; conditions: 37° C., 24 h, read-out: Minimum Inhibitory Concentration, MIC
[28] = system: Bacillus anthracis 1; assay: microbe, parasite or virus in culture; conditions: Bacillus anthracis, 1, 24 h, read-out: Minimum Inhibitory Concentration, MIC
[29] = system: Corynebacterium diphtheriae; assay: microbe, parasite or virus in culture; conditions: 37° C., 24 h, read-out: Minimum Inhibitory Concentration, MIC
[30] = system: Clostridium tetani; assay: microbe, parasite or virus in culture; conditions: 24 h
[31] = system: Clostridium perfringens; assay: microbe, parasite or virus in culture; conditions: 24 h, read-out: Minimum Inhibitory Concentration, MIC
[32] = system: Oral candidiasis; assay: MIC broth microdilution; conditions: Microorganism 32, Oral candidiasis; 37° C., 24 h; read-out: Minimum Inhibitory Concentration, MIC
[33] = MIC broth microdilution; conditions: Microorganism 33, Dermatophytosis; 37° C., 24 h; read-out: Minimum Inhibitory Concentration, MIC
[34] = read-out: Minimum Inhibitory Concentration, MIC, Microorganism 29, Clostridium tetani, 37° C.
[35] = read-out: Minimum Inhibitory Concentration, MIC, Microorganism 30, Clostridium tetani (second line of that name), 37° C.
[36] = Enterococcus faecalis (VRE), Staphylococcus aureus (MRSA), Streptococcus pneumoniae 6303 (PRSP), Bacillus cereus, Bacillus subtilis, Enterococcus faecalis, Staphylococcus aureus, Streptococcus pneumoniae, Streptococcus agalactiae B and streptococci 4

Row | SMILES | MIC [2] [µM] | MIC [3] [µM] | MIC [4] [µM] | MIC [5] [µM] | MIC [6] [µM] | MIC [7] [µM] | MIC [8] [µM] | MIC [9] [µM] | MIC [10] [µM] | MIC [11] [µM] | MIC [12] [µM] | MIC [13] [µM] | MIC [14] [µM] | MIC [15] [µM] | MIC [16] [µM] | MIC [17] [µM] | MIC [18] [µM] | MIC [19] [µM] | MIC [20] [µM] | MIC [21] [µM] | other results
1 | CCc1nn2c(=O)cc(-c3ccc(C#N)cc3)[nH]c2c1-c1ccc(Cl)cc1Cl [Compound 5] | 10.5 (≈ 4.3 µg/mL) | 0.3 (≈ 0.123 µg/mL) | 0.04 (≈ 0.0164 µg/mL) | 0.12 (≈ 0.0491 µg/mL) | 0.16 (≈ 0.0655 µg/mL) | 0.3 (≈ 0.123 µg/mL) | 2.01 (≈ 0.823 µg/mL) | 31.3 (≈ 12.8 µg/mL) | 19.2 (≈ 7.86 µg/mL) | 35.2 (≈ 14.4 µg/mL) | 32.1 (≈ 13.1 µg/mL) | 5.31 (≈ 2.17 µg/mL) | 213 (≈ 87.3 µg/mL) | 135 (≈ 55.4 µg/mL) | 150 (≈ 61.5 µg/mL) | 123 (≈ 50.4 µg/mL) | 105 (≈ 43.1 µg/mL) | 10.5 (≈ 4.3 µg/mL) | 0.3 (≈ 0.123 µg/mL) | 0.04 (≈ 0.0164 µg/mL) | inhibition of growth (conclusion from MICs) ([1]; the majority of Bacillus cereus, Bacillus subtilis and Enterococcus faecalis): significantly inhibited the growth; MIC [22]: 20.1 µM (≈ 8.23 µg/mL); MIC [23]: 0.16 µM (≈ 0.0655 µg/mL); MIC [24]: 0.31 µM (≈ 0.127 µg/mL); MIC [25]: 2.01 µM (≈ 0.823 µg/mL); MIC [26]: 1.33 µM (≈ 0.544 µg/mL); MIC [27]: 1.25 µM (≈ 0.512 µg/mL); MIC [28]: 52.4 µM (≈ 21.4 µg/mL); MIC [29]: 26.1 µM (≈ 10.7 µg/mL); MIC [30, 34]: 50.3 µM (≈ 20.6 µg/mL); MIC [30, 35]: 23.2 µM (≈ 9.5 µg/mL); MIC [31]: 55.3 µM (≈ 22.6 µg/mL); MIC [32]: 52.1 µM (≈ 21.3 µg/mL); MIC [33]: 33.5 µM (≈ 13.7 µg/mL)
2 | Cc1nn2c(=O)cc(-c3ccc(C(F)(F)F)nc3)[nH]c2c1-c1ccc(Cl)cc1Cl [Compound 8] | 0.65 (≈ 0.285 µg/mL) | 2.6 (≈ 1.14 µg/mL) | 1.35 (≈ 0.593 µg/mL) | 0.66 (≈ 0.29 µg/mL) | 0.66 (≈ 0.29 µg/mL) | 0.36 (≈ 0.158 µg/mL) | 11.5 (≈ 5.05 µg/mL) | 0.32 (≈ 0.141 µg/mL) | 0.04 (≈ 0.0176 µg/mL) | 0.16 (≈ 0.0703 µg/mL) | 0.31 (≈ 0.136 µg/mL) | 10.3 (≈ 4.52 µg/mL) | 0.6 (≈ 0.264 µg/mL) | 1.23 (≈ 0.54 µg/mL) | 10.3 (≈ 4.52 µg/mL) | 50.6 (≈ 22.2 µg/mL) | 1.23 (≈ 0.54 µg/mL) | 0.63 (≈ 0.277 µg/mL) | 2.5 (≈ 1.1 µg/mL) | 1.25 (≈ 0.549 µg/mL) | inhibition of growth (conclusion from MICs) [1, 36]: significantly inhibited the growth; MIC [22]: 0.63 µM (≈ 0.277 µg/mL); MIC [23]: 0.56 µM (≈ 0.246 µg/mL); MIC [24]: 0.3 µM (≈ 0.132 µg/mL); MIC [25]: 10.5 µM (≈ 4.61 µg/mL); MIC [26]: 0.3 µM (≈ 0.132 µg/mL); MIC [27]: 0.04 µM (≈ 0.0176 µg/mL); MIC [28]: 56.8 µM (≈ 24.9 µg/mL); MIC [29]: 30.3 µM (≈ 13.3 µg/mL); MIC [30, 34]: 70.3 µM (≈ 30.9 µg/mL); MIC [30, 35]: 50.6 µM (≈ 22.2 µg/mL); MIC [31]: 61.3 µM (≈ 26.9 µg/mL); MIC [32]: 20.3 µM (≈ 8.92 µg/mL); MIC [33]: 31.8 µM (≈ 14 µg/mL)
3 | Cc1nn2c(=O)cc(-c3ccc(C#N)cc3)[nH]c2c1-c1ccc(Cl)cc1Cl [Compound 10] | 0.31 (≈ 0.123 µg/mL) | 1.32 (≈ 0.522 µg/mL) | 0.63 (≈ 0.249 µg/mL) | 0.63 (≈ 0.249 µg/mL) | 1.25 (≈ 0.494 µg/mL) | 2.3 (≈ 0.909 µg/mL) | 0.02 (≈ 0.0079 µg/mL) | 0.31 (≈ 0.123 µg/mL) | 0.56 (≈ 0.221 µg/mL) | 0.61 (≈ 0.241 µg/mL) | 0.99 (≈ 0.391 µg/mL) | 0.63 (≈ 0.249 µg/mL) | 1.23 (≈ 0.486 µg/mL) | 0.34 (≈ 0.134 µg/mL) | 0.23 (≈ 0.0909 µg/mL) | 0.31 (≈ 0.123 µg/mL) | 0.04 (≈ 0.0158 µg/mL) | 0.25 (≈ 0.0988 µg/mL) | 0.16 (≈ 0.0632 µg/mL) | 0.31 (≈ 0.123 µg/mL) | inhibition of growth (conclusion from MICs) [1, 36]: significantly inhibited the growth; MIC [22]: 2.5 µM (≈ 0.988 µg/mL); MIC [23]: 5 µM (≈ 1.98 µg/mL); MIC [24]: 1.45 µM (≈ 0.573 µg/mL); MIC [25]: 1.05 µM (≈ 0.415 µg/mL); MIC [26]: 1.15 µM (≈ 0.455 µg/mL); MIC [27]: 1.35 µM (≈ 0.534 µg/mL); MIC [28]: 35.6 µM (≈ 14.1 µg/mL); MIC [29]: 70.3 µM (≈ 27.8 µg/mL); MIC [30, 34]: 60.3 µM (≈ 23.8 µg/mL); MIC [30, 35]: 20.3 µM (≈ 8.02 µg/mL); MIC [31]: 25.1 µM (≈ 9.92 µg/mL); MIC [32]: 99.2 µM (≈ 39.2 µg/mL); MIC [33]: 55.9 µM (≈ 22.1 µg/mL)
